pEC50: −log10 of the molar value.
How the values were obtained:
[1] = Vasodialative effect on high K+-induced vasoconstriction in rabbit basilar artery; format: functional, tissue-based, Oryctolagus cuniculus
[2] = Selectivity index, ratio of EC50 for vasodialative effect on high K+-induced vasoconstriction in rabbit carotid artery to basilar artery; format: functional, Oryctolagus cuniculus
[3] = Vasodialative effect on high K+-induced vasoconstriction in rabbit carotid artery; format: functional, Oryctolagus cuniculus

**Q.** With `CC(C)=CCC/C(=C/CC/C(C)=C/CC/C(C)=C/Cc1cc(O)cc(C)c1O)C(=O)O` [SARGAHYDROQUINOIC ACID] as the molecule, how does the pEC50 [1] read?
**A.** 4.93

**Q.** What about the “Ratio EC50” value [2] of the same molecule?
**A.** 11.9

**Q.** And the pEC50 [3]?
**A.** 3.85
